SMILES strings stand for the structures.

What all share (test): two-electrode voltage clamp, Xenopus oocytes
Common to all, as to format: cell-based
Background: Two-electrode voltage clamp is typically applied to oocytes expressing channels or transporters.

Assay [1] has as its target T1, HdP2X (Hypsibius dujardini, UniProt B8RGS2).
T1 construct: full-length, 480 residues, cDNA clone in pSPORT1; cRNA in Xenopus oocytes; P2X receptors are trimers
T1 sequence (B8RGS2 1-480): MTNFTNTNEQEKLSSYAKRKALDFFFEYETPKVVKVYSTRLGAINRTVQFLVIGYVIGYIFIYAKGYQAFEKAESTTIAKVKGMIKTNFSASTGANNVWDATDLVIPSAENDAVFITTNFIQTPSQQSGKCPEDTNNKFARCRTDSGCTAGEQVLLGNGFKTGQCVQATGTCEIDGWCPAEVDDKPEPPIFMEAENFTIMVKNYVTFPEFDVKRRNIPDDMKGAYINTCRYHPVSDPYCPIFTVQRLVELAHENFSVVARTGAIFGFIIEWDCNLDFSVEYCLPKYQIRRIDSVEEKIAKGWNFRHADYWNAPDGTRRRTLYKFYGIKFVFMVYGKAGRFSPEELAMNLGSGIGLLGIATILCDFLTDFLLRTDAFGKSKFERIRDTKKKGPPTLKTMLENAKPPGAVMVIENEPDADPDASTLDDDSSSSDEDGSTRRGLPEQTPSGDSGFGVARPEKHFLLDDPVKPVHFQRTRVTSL

Assay [2] addresses T1, HdP2X. The following applies: agonist; -60 mV; ND96 with Ba2+ for Ca2+, pH 7.5.
In assay [3] the target is T1, HdP2X. This is another data set of the same source.

In general, IC50 refers to the point on the concentration scale where inhibition reaches its midpoint. Low readings indicate greater potency in that assay, high ones weaker potency in that assay. For the compound `Cc1nc(N=Nc2ccc(S(=O)(=O)O)cc2S(=O)(=O)O)c(COP(=O)(O)O)c(C=O)c1O` [PPADS, pyridoxal-phosphate-6-azophenyl-2',4'-disulfonic acid], 15 µM corresponded to half-maximal inhibition in assay [1] (IC50).
Consider `Nc1ncnc2c1ncn2[C@@H]1O[C@H](COP(=O)(O)CP(=O)(O)OP(=O)(O)O)[C@@H](O)[C@H]1O` [αβ-methylene ATP, α,β-methylene-adenosine 5'-triphosphate], for which, in assay [2], the “% of 100 μM ATP response at 100 μM” value was below 50%.
On to `Cc1ccc(C(=O)Nc2ccc(S(=O)(=O)O)c3cc(S(=O)(=O)O)cc(S(=O)(=O)O)c23)cc1NC(=O)c1cccc(NC(=O)Nc2cccc(C(=O)Nc3cc(C(=O)Nc4ccc(S(=O)(=O)O)c5cc(S(=O)(=O)O)cc(S(=O)(=O)O)c45)ccc3C)c2)c1` [suramin], for which, in assay [1], inhibition was half-maximal at 22.6 µM (IC50).
A word on the EC50: it is the midpoint of the concentration-response curve. A lower EC50 goes with greater potency. Consider `Nc1ncnc2c1ncn2[C@@H]1O[C@H](COP(=O)(O)OP(=O)(O)OP(=O)(O)O)[C@@H](OC(=O)c2ccc(C(=O)c3ccccc3)cc2)[C@H]1O` [Bz-ATP, 2',3'-O-4-Benzoylbenzoyl ATP], for which, in assay [3], the EC50 is 12.2 µM.
Still for that read-out and setting: as for `Nc1ncnc2c1ncn2[C@@H]1O[C@H](COP(=O)(O)OP(=O)(O)OP(=O)(O)O)[C@@H](O)[C@H]1O` [ATP], the figure is 44.5 µM.

These data come from article PMC2633282, “A P2X receptor from the tardigrade species Hypsibius dujardini with fast kinetics and sensitivity to zinc and copper” (BMC Evolutionary Biology, 2009).
